From the supplement of paper PMC10307832

What was measured:
Assay in all cases: relative viability (nuclei count vs DMSO), 5 days (fraction); higher = more cells survive
CUDC-101 + Navitoclax = compound: C#Cc1cccc(Nc2ncnc3cc(OC)c(OCCCCCCC(=O)NO)cc23)c1 [CUDC-101] + CC1(C)CCC(c2ccc(Cl)cc2)=C(CN2CCN(c3ccc(C(=O)NS(=O)(=O)c4ccc(N[C@H](CCN5CCOCC5)CSc5ccccc5)c(S(=O)(=O)C(F)(F)F)c4)cc3)CC2)C1 [Navitoclax] (partner 0.5 µM)
Procedure, shortened: (§1)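 After 5 days of treatment, lung cancer cells in 1536-well plates were fixed and stained in a single step (final 0.05% Triton X-100, 1% formaldehyde, 1 ug/ml Hoechst) and their nuclei counted on 4× images. Treatment had been applied by pin tool the day after seeding as one drug alone or as a fixed anchor-drug dose with five library-drug doses (not always all listed) in √10 steps. Relative viability is the nuclei count of treated wells divided by that of vehicle wells, and values are medians of duplicate plates.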

NVP-TAE684 + Linsitinib = compound: COc1cc(N2CCC(N3CCN(C)CC3)CC2)ccc1Nc1ncc(Cl)c(Nc2ccccc2S(=O)(=O)C(C)C)n1 [NVP-TAE684] + C[C@]1(O)C[C@@H](c2nc(-c3ccc4ccc(-c5ccccc5)nc4c3)c3c(N)nccn32)C1 [Linsitinib] (partner 1 µM)
Procedure, shortened: as §1

Vandetanib + Olaparib = compound: COc1cc2/c(=N/c3ccc(Br)cc3F)nc[nH]c2cc1OCC1CCN(C)CC1 [Vandetanib] + O=C(c1cc(Cc2n[nH]c(=O)c3ccccc23)ccc1F)N1CCN(C(=O)C2CC2)CC1 [Olaparib] (partner 8 µM)
Procedure, shortened: as §1

NVP-TAE684 + AZD7762 = compound: COc1cc(N2CCC(N3CCN(C)CC3)CC2)ccc1Nc1ncc(Cl)c(Nc2ccccc2S(=O)(=O)C(C)C)n1 [NVP-TAE684] + NC(=O)Nc1cc(-c2cccc(F)c2)sc1C(=O)N[C@H]1CCCNC1 [AZD7762] (partner 0.2 µM)
Procedure, shortened: as §1

NVP-TAE684 + OSI-027 = compound: COc1cc(N2CCC(N3CCN(C)CC3)CC2)ccc1Nc1ncc(Cl)c(Nc2ccccc2S(=O)(=O)C(C)C)n1 [NVP-TAE684] + COc1cccc2cc(-c3nc([C@H]4CC[C@H](C(=O)O)CC4)n4ncnc(N)c34)[nH]c12 [OSI-027] (partner 0.5 µM)
Procedure, shortened: as §1

Cell Line | relative viability (CUDC-101 + Navitoclax; first compound 0.01 µM) | relative viability (CUDC-101 + Navitoclax; first compound 0.03162 µM) | relative viability (CUDC-101 + Navitoclax; first compound 0.1 µM) | relative viability (CUDC-101 + Navitoclax; first compound 0.3162 µM) | relative viability (CUDC-101 + Navitoclax; first compound 1 µM) | relative viability (NVP-TAE684 + Linsitinib; first compound 0.2 µM) | relative viability (NVP-TAE684 + Linsitinib; first compound 2 µM) | relative viability (Vandetanib + Olaparib; first compound 0.02 µM) | relative viability (Vandetanib + Olaparib; first compound 0.06325 µM) | relative viability (Vandetanib + Olaparib; first compound 0.2 µM) | relative viability (Vandetanib + Olaparib; first compound 0.6325 µM) | relative viability (Vandetanib + Olaparib; first compound 2 µM) | relative viability (NVP-TAE684 + AZD7762; first compound 0.2 µM) | relative viability (NVP-TAE684 + AZD7762; first compound 0.6325 µM) | relative viability (NVP-TAE684 + AZD7762; first compound 2 µM) | relative viability (NVP-TAE684 + OSI-027; first compound 0.2 µM) | relative viability (NVP-TAE684 + OSI-027; first compound 0.6325 µM) | relative viability (NVP-TAE684 + OSI-027; first compound 2 µM) | relative viability (NVP-TAE684 + Linsitinib; first compound 0.6325 µM)
201T | 1.18 | 1.17 | 1.16 | 1.2 | 1.21 | 1.1 | 0.925 | 0.79 | 0.829 | 0.796 | 0.791 | 0.817 | 0.669 | 0.79 | 0.521 | 0.762 | 0.732 | 0.474 | –
A549 | 1.34 | 1.12 | 1.19 | 1.2 | 1.15 | 0.539 | 0.532 | 0.234 | 0.368 | 0.349 | 0.291 | 0.356 | – | – | – | – | – | – | 0.603
A-427 | 0.978 | 0.919 | 0.939 | 0.926 | 0.924 | 1.22 | 1.07 | 0.735 | 0.852 | 0.71 | 0.711 | 0.694 | 0.69 | 0.528 | 0.366 | 0.548 | 0.396 | 0.285 | –
ABC-1 | – | – | – | – | – | 0.825 | 0.358 | 0.538 | 0.617 | 0.774 | 0.904 | 0.726 | 0.917 | 0.524 | 0.472 | 0.393 | 0.419 | 0.179 | 0.742
